“Also recorded” adds a separate entry of the source. Peptide text beside a SMILES is read from it. * marks the point of attachment. Cbz = O=C(OCc1ccccc1)*
Tests used:
PPARγ2 = PPARγ2 accumulation after proteasomal inhibition in c-Abl-depleted 3T3-L1 cells (immunoblotting); format: cell-based, mouse; conditions: c-Abl-depleted 3T3-L1, day 5 of differentiation, 25 μg MG-132, lysed after 5 h
Method: FIGS. 2A-C illustrate that c-Abl prolongs PPARγ2 half-life. (A) Proteasomal inhibition in mid-differentiation results in PPARγ2 accumulation. 3T3-L1 cells expressing shRNA to GFP (control) or c-Abl were induced to differentiate using insulin, dexamethasone and IBMX. On day 5, cells were treated with 25 μg MG-132 and lysed after 5 h. Protein levels were analyzed by immunoblotting. (B) c-Abl stabilizes PPARγ2. HEK293 cells were transfected with plasmids expressing HA-PPARγ2 with or without active c-Abl. Twenty-four hours after transfection, cells were treated with 20 μg/ml cycloheximide for different time points. […] The ratio between immunoprecipitated poly-ubiquitinated PPARγ2 ladder and PPARγ2 protein level from 3 independent experiments was quantified (*** −p<0.005).
The present inventors investigated whether c-Abl might play a role in PPARγ2 accumulation. […] Next, the present inventors measured PPARγ2 protein half-life in the presence or absence of an active form of c-Abl (41-81 c-Abl). […] To investigate the possibility that c-Abl supports PPARγ2 stabilization via inhibition of the poly-ubiquitination of PPARγ2, an octameric tandem fusion of HA-tagged ubiquitin was co-expressed together with Flag-tagged PPARγ2 with or without active c-Abl and the pattern of the poly-ubiquitinated PPARγ2 ladder was analyzed.

3T3-L1 cells = test: Adipocyte differentiation of 3T3-L1 cells, oil red O staining; format: cell-based, mouse
Method: FIGS. 1A-E illustrate that c-Abl is required for adipocyte differentiation. (A) c-Abl activity increases during adipogenesis. 3T3-L1 adipoblasts were induced to differentiate with medium containing 5 μg/ml Insulin, 1 μM Dexamethasone and 0.5 mM IBMX. Cells were lysed at the indicated times and protein levels were analyzed by Western blotting. The proteasomal subunit PSMA4 served as a loading control. […] Cells were stained with oil red O and photographed at day 8. (C) c-Abl is required in adipocyte differentiation. 3T3-L1 expressing shRNA against either GFP or c-Abl were induced to differentiate and stained with oil red 0 at day 10. (D) c-Abl is required for expression of PPARγ and its target genes during adipogenesis. 3T3-L1 cells expressing shRNA against either GFP or c-Abl were induced to differentiate as in (A). Cells were lysed at the indicated times and protein levels were analyzed by Western blotting. (E) c-Abl is required for transcription of PPARγ pro-adipogenic target genes but not for transcription of PPARγ itself. At day 4 of differentiation, RNA from 3T3-L1 cells was analyzed for mRNA expression of the indicated genes by quantitative PCR.
FIG. 15 are photographs illustrating differentiation of 3T3-L1 preadipocytes with or without Chk1 inhibitor, UCN-01. […]

[1] = system: mesenchymal stromal cells; conditions: Fitter S, et al. (2008); cited from earlier work
CML patients = conditions: Fitter S, et al. (2010); cited from earlier work
[2] = system: PPARγ2 (wild type, Flag-tagged)

## CC(C)C[C@@H](C=O)NC(=O)[C@H](CC(C)C)NC(=O)[C@H](CC(C)C)NC(=O)OCc1ccccc1 [MG-132] (Cbz-Leu-Leu-Leu-aldehyde)
PPARγ2
  PPARγ2 protein level: markedly increased

## Cc1ccc(NC(=O)c2ccc(CN3CCN(C)CC3)cc2)cc1Nc1nccc(-c2cccnc2)n1 [STI-571, imatinib]
3T3-L1 cells; 3T3-L1 induced with insulin, dexamethasone, IBMX, STI-571 added 7 hours after differentiation onset until day 5, oil red O at day 8, even at low inhibitor concentration
  adipogenesis (adipocyte differentiation): markedly reduced; also recorded: inhibits adipocyte differentiation
[1]
  adipocytic differentiation of mesenchymal stromal cells: promote adipocytic differentiation
CML patients
  fat accumulation: associated with fat accumulation
  insulin sensitivity: improved insulin sensitivity

## CN[C@@H]1C[C@H]2O[C@@](C)([C@@H]1OC)n1c3ccccc3c3c4c(c5c6ccccc6n2c5c31)C(=O)N[C@@H]4O [UCN-01]
3T3-L1 cells; with or without Chk1 inhibitor UCN-01 (FIG. 15)
  differentiation of 3T3-L1 preadipocytes: completely inhibit

## c-Abl Δ1-81 (active form of c-Abl)
HA-PPARγ1
  tyrosine phosphorylation detected with anti-phosphotyrosine antibody (PY20) after immunoprecipitation using anti-HA beads: HA-PPARγ1 was only poorly phosphorylated by c-Abl
[2]
  tyrosine phosphorylation of PPARγ2 detected with anti-phosphotyrosine antibody (PY20) after immunoprecipitation: unlike HA-PPARγ2, HA-PPARγ1 was only poorly phosphorylated by c-Abl (FIG. 3D). Similar results were obtained using Flag-PPARγ2
PPARγ2 P12A variant
  tyrosine phosphorylation detected with anti-phosphotyrosine antibody (PY20) after immunoprecipitation using anti-Flag beads: the P12A variant was inefficient in binding to c-Abl and in undergoing phosphorylation by the kinase
